Measured values published in patent US11160788B2, “Caspase-1 inhibition and uses thereof for prevention and treatment of neurological conditions” (priority 2016, dated 2021).

Assays:
J20 mice = experiment: Barnes maze spatial memory, treatment of symptomatic J20 mice; format: in vivo, mouse
Text: FIG. 8: VX-765 treatment restores cognitive function in J20 mice. (a) Experimental paradigm. Intraperitoneal vehicle-injected wild type (WT+Vehicle; n=13) and J20 mice (J20+Vehicle: n=9), and VX-765-injected J20 mice (J20+VX-765: n=9) mice were behaviourally assessed at 5 different time-points: baseline before treatment (baseline untreated J20 were grouped together; n=18), after 3 IP injections/wk of VX-765 or vehicle (Treatment 1), after 6 additional injections over 2 weeks (Treatment 2), after 4-week Washout period, and after an additional 3 injections in one week (Treatment 3). Mice were sacrificed at 8 months of age after Treatment 3 (b) NOR Discrimination index (Treatment main effect, F(2,20)=85.8, p<0.0001; Time main effect, F(4,80)=4.188, p=0.0039; Treatment×Time interaction, F(8,80)=[…], two-way repeated-measures ANOVA, Dunnett's post-hoc compared to J20+Vehicle). (c) Distance traveled during Open Field task. Data analyzed by repeated measures two-way ANOVA (Treatment main effect, F(2,19)=11.47, p=0.0005; Treatment×Time interaction, F(8,76)=5.69, p<0.0001, two-way repeated-measures ANOVA, Dunnett's post-hoc compared to J20+Vehicle). (d-i) Barnes maze analysis. Learning acquisition (d,g), probe test primary latency and errors (e,h), and target hole preference (f,i); # of pokes of each hole labelled +1 to +9 to the right or −1 to −9 to the left of the target hole during the probe) after Treatment 2 (d-f) and Washout (g-i). Probe tests were analyzed (Treatment 2 primary latency, F(2,52)=5.879, p=0.0050; Treatment 2 primary errors, F(2,52)=9.998, p=0.0002; Washout primary latency, F(2,22)=4.076, p=0.0312; Washout primary errors, F(2,22)=10.84, p=0.0005, ANOVA, Tukey's post-hoc). * p<0.05, ***p<0.001, ****p<0.0001.
FIG. 9: VX-765 dose-dependently restores cognitive function in J20 mice. (a) NOR discrimination index after VX-765 dose response at Treatment 1 (F(3,24)=20.42, p<0.0001, ANOVA, Dunnett's post-hoc compared to J20 0 mg/kg), Treatment 2 (F(3,23)=12.83, p<0.0001, ANOVA, Dunnett's post-hoc compared to J20 0 mg/kg), Washout, and Treatment 3 (F(3,23)=8.828, p=0.0004, ANOVA, Dunnett's post-hoc compared to J20 0 mg/kg). Note that the 50 mg/kg dose was not performed at the same time and is placed here for comparison purposes only. Nevertheless, the discrimination index was stable between experiments (b-g) Barnes maze Treatment 2 (b-d) and Washout (e-g) learning acquisition (b,e), probe test (c,f), and target hole preference (d,g). For T2 primary errors, F(2,14)=5.69, p=0.0155, ANOVA, Dunnett's post-hoc compared to J20+Vehicle. * p<0.05, ***p<0.001, ****p<0.0001.
Anxiety and hyperactivity are monitored in an open-field paradigm, episodic memory with the NOR, spatial memory with the Barnes maze, and short or long term working memory with the Y maze before and after treatments. Repeated measures are acceptable for the NOR, Barnes and Y maze^2-4.
Five month old mice were behaviorally and longitudinally assessed before treatment (baseline), after 3 injections/week of 50 mg/kg VX-765 (Treatment 1; T1), after an additional 2 weeks of injections (Treatment 2; T2), after 4 weeks without treatment (Washout; WO), and after 3 more injections/week (Treatment 3; T3) before sacrificing the mice at 8 months of age as illustrated in FIG. 8a. […] Results were consistent across individual mice (FIG. 15c). […] However, during the probe test, the primary latency, primary errors (FIG. 8e) and the ability to find the target (T) escape hatch (FIG. 8f) were clearly impaired in vehicle-injected J20 compared to WT littermates. […] After WO, all mice performed well during the training phase of the Barnes maze (FIG. 8g). […] J20 mice performance in the Y maze working memory task was consistently low but not always statistically different from WT or treated J20 mice (FIG. 15e).

human Casp2 to 10 = experiment: Selectivity against human Casp2 to 10; format: biochemical; conditions: recombinant caspases
Method: FIG. 14: Selectivity and blood brain permeability of VX-765 and VRT-043198. (a-b) IC50 of VX-765 (a) and VRT-043198 (b) against human Casp1-10. (c-d) IC50 of VX-765 (c) and VRT-043198 (d) against mouse Casp1 and Casp11. (e) Blood brain barrier permeability and presence of VX-765 and VRT-043198 in 3 wild type and 4 J20 mice brain cortex and hippocampus and in plasma. Ratios of brain levels to plasma levels are calculated.

CCO[C@@H]1OC(=O)C[C@@H]1NC(=O)[C@@H]1CCCN1C(=O)[C@@H](NC(=O)c1ccc(N)c(Cl)c1)C(C)(C)C [VX-765, (S)-1-((S)-2-{[1-(4-amino-3-chloro-phenyl)-methanoyl]-amino}-3,3-dimethyl-butanoyl)-pyrrolidine-2-carboxylic acid ((2R,3S)-2-ethoxy-5-oxo-tetrahydro-furan-3-yl)-amide]
Barnes maze ability to recognize the escape hatch in probe test (J20 mice; 10 mg/kg, after Treatment 2): improved in their ability to recognize the escape hatch
Barnes maze primary latency (J20 mice; 10 mg/kg, after Treatment 2): remained impaired in primary latency
Barnes maze primary latency and errors (J20 mice; 10 mg/kg, after washout): No significant difference
Barnes maze ability to recognize the escape hatch in probe test (J20 mice; 25 mg/kg, after Treatment 2): improved in their ability to recognize the escape hatch
Barnes maze primary errors (J20 mice; 25 mg/kg, after Treatment 2): decreased
Barnes maze primary latency (J20 mice; 25 mg/kg, after Treatment 2): remained impaired in primary latency
Barnes maze primary latency and errors (J20 mice; 25 mg/kg, after washout): No significant difference
Barnes maze recognition of the position of the escape hatch (J20 mice; 25 mg/kg, after washout): retained the ability to recognize the position of the escape hatch
Barnes maze probe test: primary latency, primary errors, finding target hatch (J20 mice; 50 mg/kg IP, after Treatment 2): eliminated these spatial memory deficits
Barnes maze ability to find the target hatch (J20 mice; 50 mg/kg IP, after washout): performed better than vehicle-injected J20 mice
Barnes maze probe test primary latency and errors (J20 mice; 50 mg/kg IP, after washout): appeared normal in primary latency and errors
inhibition of human Casp1 relative to human Casp2 to 10 (human Casp2 to 10): potently and specifically inhibited
